Reference: patent US6552086B1, “Sulfonamide derivatives” (Eli Lilly and Company, priority 1998, dated 2003)

Target: T1, human GluR4B receptor (Homo sapiens, UniProt P48058)
T1 construct: expressed in transfected cells
Assay: Potentiation of agonist-induced excitability of human GluR4B expressed in HEK 293 cells
Format: cell-based
Details: human GluR4B receptor expressed in HEK 293 cells
Source text: The ability of compounds of formula I to potentiate glutamate receptor-mediated response may be determined using fluorescent calcium indicator dyes (Molecular Probes, Eugene, Oreg., Fluo-3) and by measuring glutamate-evoked efflux of calcium into GluR4 transfected HEK293 cells, as described in more detail below.
In one test, 96 well plates containing confluent monolayers of HEK cells stably expressing human GluR4B (obtained as described in European Patent Application Publication Number EP-A1-583917) are prepared. The tissue culture medium in the wells is then discarded, and the wells are each washed once with 200 μl of buffer (glucose, 10 mM, sodium chloride, 138 mM, magnesium chloride, 1 mM, potassium chloride, 5 mM, calcium chloride, 5 mM, N-[2-hydroxyethyl]-piperazine-N-[2-ethanesulfonic acid], 10 mM, to pH 7.1 to 7.3). […]
Each test is then performed as follows. […] A second fluorescent reading is taken after 5 minutes incubation. 15 μl of 400 μM glutamate solution is then added to each well (final glutamate concentration 100 μM), and a third reading is taken. The activities of test compounds and cyclothiazide solutions are determined by subtracting the second from the third reading (fluorescence due to addition of glutamate in the presence or absence of test compound or cyclothiazide) and are expressed relative to enhance fluorescence produced by 100 μM cyclothiazide.

T1 sequence (P48058 21-902): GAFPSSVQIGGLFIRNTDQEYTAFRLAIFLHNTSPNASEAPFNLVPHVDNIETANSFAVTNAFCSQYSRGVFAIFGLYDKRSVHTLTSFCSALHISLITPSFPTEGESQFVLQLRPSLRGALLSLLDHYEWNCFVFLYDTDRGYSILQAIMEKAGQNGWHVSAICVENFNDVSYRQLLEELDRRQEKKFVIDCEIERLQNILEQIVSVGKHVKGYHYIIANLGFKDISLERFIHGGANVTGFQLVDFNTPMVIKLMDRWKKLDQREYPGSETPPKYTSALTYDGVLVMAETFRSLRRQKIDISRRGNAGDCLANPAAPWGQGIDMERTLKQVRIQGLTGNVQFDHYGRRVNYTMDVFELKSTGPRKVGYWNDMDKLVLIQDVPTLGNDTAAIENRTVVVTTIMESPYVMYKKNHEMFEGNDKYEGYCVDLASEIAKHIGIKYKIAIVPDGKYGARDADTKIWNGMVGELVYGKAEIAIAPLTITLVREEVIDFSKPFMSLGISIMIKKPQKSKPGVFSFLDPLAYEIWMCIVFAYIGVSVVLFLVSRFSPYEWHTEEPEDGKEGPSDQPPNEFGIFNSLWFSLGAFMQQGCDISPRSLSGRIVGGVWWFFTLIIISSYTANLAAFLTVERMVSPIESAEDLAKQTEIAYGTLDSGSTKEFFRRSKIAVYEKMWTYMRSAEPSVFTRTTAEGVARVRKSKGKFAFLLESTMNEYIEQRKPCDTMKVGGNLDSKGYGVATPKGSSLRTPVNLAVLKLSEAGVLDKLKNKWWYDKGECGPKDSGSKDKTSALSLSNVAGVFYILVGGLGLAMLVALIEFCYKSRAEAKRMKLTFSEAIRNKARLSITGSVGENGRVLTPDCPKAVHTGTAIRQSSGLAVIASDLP

NS(=O)(=O)c1cc2c(cc1Cl)NC(C1CC3C=CC1C3)NS2(=O)=O (stereo not shown) [cyclothiazide]
potentiation of agonist-induced excitability: potentiate
